Measured values: patent publication US20030119846A1, “Compounds with 5-ht activity useful for controlling visual field loss” (priority 2000, published 2003)
Counter-ions that a name gives are not always drawn.

What was measured:
[1] = biological target: T1, human cloned 5-HT1A receptors (Homo sapiens, UniProt P08908); test: 5-HT1A Receptor Binding Assay ([3H]8-OH-DPAT, CHO cell membranes); conditions: 0.25 nM [3H]8-OH-DPAT, 27° C., 1 h; read-out: Receptor Binding (IC50 nM, SEM)
T1 construct: purchased NEN (manufactured by Biosignal, Inc., Montreal, Canada); host or cells: CHO cells
T1 sequence (P08908 1-422): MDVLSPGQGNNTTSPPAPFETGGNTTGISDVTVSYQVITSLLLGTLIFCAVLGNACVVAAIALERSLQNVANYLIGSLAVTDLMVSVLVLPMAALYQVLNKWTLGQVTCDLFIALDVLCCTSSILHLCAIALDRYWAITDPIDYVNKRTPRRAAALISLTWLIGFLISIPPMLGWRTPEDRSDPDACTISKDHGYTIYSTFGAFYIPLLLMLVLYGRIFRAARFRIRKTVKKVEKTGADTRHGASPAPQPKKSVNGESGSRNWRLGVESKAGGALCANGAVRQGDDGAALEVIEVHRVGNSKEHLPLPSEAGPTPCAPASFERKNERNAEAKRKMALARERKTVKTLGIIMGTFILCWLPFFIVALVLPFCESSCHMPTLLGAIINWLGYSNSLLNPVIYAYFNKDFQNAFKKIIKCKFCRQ
Description: 5-HT1A binding studies were performed with human cloned receptors expressed in Chinese hamster ovary (CHO) cells using (^3H)8-OH DPAT as the ligand. Membranes from Chinese hamster ovary cells (CHO) expressing cloned 5-HT1A receptors (manufactured for NEN by Biosignal, Inc., Montreal, Canada) were homogenized in approximately 40 volumes of 50 mM Tris pH 7.4 for 5 sec. Drug dilutions were made using a Beckman Biomek 2000 robot (Beckman Instruments, Fullerton, Calif.). Incubations were conducted with membrane prep, test compounds, and 0.25 nM [^3H]8-OH-DPAT (NEN, Boston, Mass.) in the same buffer at 27° C. for 1 h. Assays were terminated by rapid vacuum filtration over Whatman GF/B glass fiber filters pre-soaked in 0.3% polyethyleneimine. Bound radioactivity was measured using liquid scintillation spectrometry. Data were analyzed using non-linear curve fitting programs (Sharif et al., J. Pharmac. Pharmacol. 51:685-694, 1999).
Ligand binding studies can also be run using membrane preparations from calf and rat brain (local source) and human cortex membranes. Specific brain regions were dissected out, homogenized in 10 volumes of 0.32 M sucrose and centrifuged for 10 min at 700×g. […] Ki values were calculated using the Cheng-Prusoff equation (De Vry et al., J. Pharm. Exper. Ther. 284:1082-1094, 1998.)

[2] = tested on: retina (photo-oxidative injury); test: Neuroprotective effects in the acute blue-light damage model in the rat (ERG); format: in vivo, Sprague Dawley rats; conditions: for A-wave Amplitude Mean / B-wave Amplitude Mean: ERG after 5-day recovery
Description: Male Sprague Dawley rats were randomly assigned to vehicle treatment (N=15) or drug treatment (0.5 mg/kg [N=5] or 1 mg/kg [N=15]) experimental groups. Xaliproden hydrochloride or vehicle was administered by intraperitonal (IP) injection at 48, 24, and 0 hours prior to light exposure. Photo-oxidative injury to the retina was induced in dark-adapted rats (24 hours) by a 6-hour blue-light exposure (220 fc). Control rats (N=11) were housed in their home cage under normal cyclic light exposure. Rats were single housed in clear polycarbonate cages during this light exposure.
The electroretinogram (ERG) was recorded after a five day recovery period from dark-adapted anesthetized rats (Ketamine-HCl, 75 mg/Kg; Xylazine, 6 mg/Kg). The eye's electrical response to a flash of light was elicited by viewing a ganzfeld. ERGs to a series of light flashes increasing in intensity were digitized to analyze temporal characteristics of the waveform and determine the response voltage-log intensity (VlogI) relationship. Changes in the ERG a-wave are associated with photoreceptor and retinal pigment epithelium damage while damage to the inner retina is reflected in changes in the ERG b-wave.

[3] = biological target: T2, 5-HT1A receptors (UniProt P08908); test: 5-HT1A Functional Assay (cAMP inhibition, forskolin-stimulated adenylate cyclase); conditions: read-out: cAMP Inhibition (EC50)
T2 sequence (P08908 1-422): T1 sequence (P08908 1-422)
Description: HeLa cells transfected with recombinant human 5-HT1A receptors were grown to confluence in 24-well plates. The cells were rinsed with 1 ml of Hepes-buffered saline (in MM) NaCl 130, KCl 5.4, CaCl2, 1.8, MgSO4 0.8, NaH2PO4 0.9, glucose 25, Hepes 20, pH 7.4, and phenol red 5 mg/l. The cells were labelled with 6 μCi/ml of [^2-3H]adenine (23 Ci/mmol, Amersham, Rahn AG, Zurich, Switzerland) in 0.5 ml of saline at 37 ° C. for 2 hr. The plates were subsequently rinsed twice with 1 ml of buffered saline containing 1 mM isobutylmethylxanthine. The cells were incubated for 15 min in 1 ml of this solution (37° C.) in the presence or absence of 10 μM forskolin and the test compound. The buffer was then removed and 1 ml of 5% trichloroacetic acid (TCA) containing 0.1 mM cAMP and 0.1 mM ATP was added to extract the samples. […] Cyclic AMP production was calculated as the ratio [^3H]cAMP/([^3H]cAMP+[^3H]ATP).

[4] = 0.5 mg/kg IP at 48, 24, 0 h before 6-hour blue-light exposure
[5] = 1.0 mg/kg IP at 48, 24, 0 h before 6-hour blue-light exposure

Question: How did the IC50 [1] turn out when `FC(F)(F)c1cccc(C2=CCN(CCc3ccc4ccccc4c3)CC2)c1` [SR-57746A, xaliproden hydrochloride] was run?
Answer: 2.5 nM

Question: What about the “A-wave Amplitude Mean” value [2, 4] of the same compound?
Answer: 550.5 μV

Question: And the “B-wave Amplitude Mean” value [2, 4]?
Answer: 1361.1 μV

Question: And the “Maximum a- and b-wave response amplitudes, % of controls” value ([2]; 0.5 mg/kg, light-exposed rats)?
Answer: 82%

Question: What about the “A-wave Amplitude Mean” value [2, 5] of the same compound?
Answer: 460.8 μV

Question: What about the “B-wave Amplitude Mean” value [2, 5] of the same compound?
Answer: 1169.4 μV

Question: And the “Maximum a- and b-wave response amplitudes, % of normal” value ([2]; 1 mg/kg, light-exposed rats)?
Answer: 70%

Question: What about the “Protection of retinal function” value ([2]; 0.5 and 1.0 mg/kg, light-exposed rats) of the same compound?
Answer: Significant protection of retinal function

Question: And the EC50 [3]?
Answer: 3.7 nM
